Measured values: publication PMC7281150, “Inspired by Sea Urchins: Warburg Effect Mediated Selectivity of Novel Synthetic Non-Glycoside 1,4-Naphthoquinone-6S-Glucose Conjugates in Prostate Cancer” (Marine Drugs, 2020)
Read-outs that look alike come from different tables or passages of the source.

Legend:
PC-3 cells [1] = test: Glucose uptake assay (2-NBDG), FACS-based readout; type: cell-based, human; conditions: PC-3, 24 h
Experimental: (§1) The effects of the synthesized substance on glucose uptake were evaluated using the Glucose Uptake Cell-Based Assay Kit (Cayman chemicals, Ann Arbor, MI, USA) and two different methods. (a) Plate reader-based measurement: PC-3 cells (12 × 10^3 cells/well) were seeded in two 96-well plates, incubated overnight, and treated with the investigated drugs in 100 µL/well of glucose-free 0.1% FBS/RPMI media for 24 h. Then, the 10 µL/well of either 2-NBDG solution (2-deoxy-2-[(7-nitro-2,1,3-benzoxadiazol-4-yl)amino]-D-glucose, 5 mg/mL, for glucose uptake measurements) or vehicle solution (for cell viability measurements) in glucose-free 0.1% FBS/RPMI media were added to each well. […] Then, for glucose uptake measurements, the 100 µL/well of PBS were added and the fluorescence was measured using Infinite F200PRO reader (TECAN, Männedorf, Switzerland); or, for the cell viability measurements, 100 µL/well of media containing MTS reagent were added to the cells and viability was measured as described before. Glucose uptake rate was normalized to the cell viability measured by MTS assay in order to measure the uptake rate exclusively in the viable cells. (b) FACS-based readout: The experiment was performed as described before. […] The plates were then incubated with 2-NBDG solution, the cells were harvested by trypsination, washed, stained with PI, and analyzed using a flow cytometry.

22Rv1 cells [2] = test: Western blotting of protein expression; type: cell-based, human; conditions: 22Rv1, 48 h
Experimental: Cells (10^6 cells/well) were seeded in Petri dishes (ø 6 cm) and incubated overnight. The cells were treated with the investigational drugs in fresh culture media (5 mL/dish) for 48 h. Then, cells were harvested by scratching and lysed in the lysis buffer (1% NP-40, 50 mM Tris-HCl (pH 7.6), 0.88% NaCl, 0.25% sodium cholate, 1 mM Na3VO4, 0.1 mM PMSF, protease inhibitors cocktail (cOmplete Mini EDTA-free EASYpacks, Roche, Mannheim, Germany)). Proteins were extracted and diluted with lysis buffer and loading dye, heated 5 min at 99 °C and subjected to electrophoresis in gradient Mini-PROTEAN® TGX Stain-Free^TM gels (Bio-Rad, Hercules, CA, USA). Proteins were transferred from gel to 0.2 µm pore PVDF membrane using Trans-Blot® Turbo^TM RTA Mini PVDF Trans kit (Bio-Rad) and Trans-Blot® Turbo^TM Blotting System (Bio-Rad) according to the manufactures protocol. The membrane was blocked (5% BSA in 0.05% Tween-20/TBS), treated with primary and secondary antibodies, and the signals were detected using the ECL chemiluminescence system (Thermo Scientific, Rockford, IL, USA). All procedures were performed according to the manufacturer′s protocols.

22Rv1 cells [3] = test: MTT cytotoxicity in 22Rv1 cells with or without N-acetyl-L-cysteine; type: cell-based, human; conditions: without NaC, FBS- and glucose-free media, 48 h, read-out: IC50 (viability of 22Rv1 cells)
Experimental: (§2) Cell viability was determined by MTT assay. Cells were pre-incubated overnight in 96-well plates (6 × 10^3 cells/well in 100 μL/well). Then, the medium was replaced with fresh medium containing the determined compounds (100 μL/well), and cells were incubated for the indicated time. Next, 10 μL/well of (3-(4,5-dimethylthiazol-2-yl)-2,5-diphenyltetrazolium bromide) reagent were added. After 2–4 h of incubation, the media was aspirated and the plates were dried. Fifty microliters per well of DMSO were added to each well and the cell viability was measured using Infinite F200PRO reader (TECAN, Männedorf, Switzerland). Results were calculated by The GraphPad Prism software v. 7.05 (GraphPad Prism software Inc., La Jolla, CA, USA) and are represented as IC50 of the compounds against control cells treated with the solvent alone.

22Rv1 cells [4] = test: Analysis of cell cycle progression and DNA fragmentation (PI staining, FACS); type: cell-based, human; conditions: 22Rv1, 48 h
Experimental: Cells (2 × 10^5 cells/well) were pre-incubated overnight in 6-well plates. Then, cells were treated with the substances in 2 mL of fresh culture media/well for 48 h. Cells were harvested by trypsination, fixed in 70% EtOH, stained with PI, and analyzed by FACS Calibur (BD Bioscience, San Jose, CA, USA). The results were quantified using BD Bioscience Cell Quest Pro v.5.2.1. software (BD Bioscience, San Jose, CA, USA). The sub-G1 population was considered to reflect apoptotic cells (containing fragmented DNA).

22Rv1 cells [5] = test: Analysis of intracellular ROS level (CM-H2DCFDA, FACS); type: cell-based, human; conditions: 2 h
Experimental: Intracellular ROS levels were accessed using the ROS-sensitive CM-H2DCFDA reagent (Cat. No. C6827, Molecular probes, Invitrogen, Eugene, OR, USA). The experiment was performed as previously described with slight modifications. In brief, 22Rv1 cells (10^5 cells/well) were seeded in 12-well plates and incubated overnight. The media was changed with freshly made pre-warmed staining solution (4 µM CM-H2DCFDA/PBS, 0.5 mL/well) and incubated in the dark (37 °C, 5% CO2) for 30 min. Then, the staining solution was exchanged with 1 mL/well of pre-warmed PBS containing the investigated compounds or H2O2 (positive control) at the indicated concentrations and the cells were incubated for 2 h. Next, the cells were trypsinized, resuspended in pre-warmed PBS (200 µL/sample) and immediately analyzed by FACS according to the manufacture′s protocol.

PC-3 cells [6] = type: cell-based, human; conditions: PC-3, zVAD 100 µM, 48 h
[7] = test system: five prostate cancer (LNCaP, 22Rv1, VCaP, PC-3, and DU145) vs. five non-cancer (PNT2, RWPE-1, HEK 293T, MRC-9, and HUVEC) cell lines; test: Mean MTT cytotoxicity in five prostate cancer vs. five non-cancer cell lines; type: cell-based, human; conditions: 48 h
Experimental: as §2

[8] = test system: human drug-resistant prostate cancer PC-3 cells; test: MTT cytotoxicity in PC-3 cells; type: cell-based; conditions: for IC50: 24 h, read-out: IC50 (viability of PC-3 cells)
Experimental: as §2

22Rv1 cells [9] = test: Analysis of mitochondrial membrane potential (JC-1, FACS); type: cell-based, human
Experimental: The drop down of mitochondrial membrane potential (ΔΨm) was measured using staining with ΔΨm-sensitive JC-1 dye (5,5′,6,6′-Tetrachloro-1,1′,3,3′-tetraethyl-imidacarbocyanine iodide) and flow cytometry technique. Cells (10^5 cells/well) were seeded in 12-well plates and incubated overnight. […] The cells were trypsinized, pelleted, resuspended in 100 µL of 2 µM JC-1/PBS, incubated for 1 h (37 °C, 5% CO2, in the dark), and analyzed by flow cytometry technique.

PC-3 cells [10] = test: Glucose uptake assay (2-NBDG), plate reader-based measurement; type: cell-based, human; conditions: PC-3, 24 h
Experimental: as §1

Compound: 6-(6-Deoxy-D-glucopyranos-6-ylthio)-5,8-dihydroxy-7-methyl-2,3-dimethoxy-1,4-naphthoquinone [SAB-14]
- glucose uptake (2-NBDG, single cells by flow cytometry), normalized to cell viability (PC-3 cells [1]): inhibition of glucose uptake
- cleavage of caspase-3 (Western blotting) (22Rv1 cells [2]): cleavage of caspase-3 was observed
- p21 expression (Western blotting) (22Rv1 cells [2]): upregulation of p21
- PARP cleavage (Western blotting) (22Rv1 cells [2]; concentrations close to IC50s): PARP cleavage
- IC50 (22Rv1 cells [3]): 4.6 ± 2.9 µM
- DNA fragmentation (sub-G1 peak) (22Rv1 cells [4]): DNA fragmentation
- cell cycle progression (22Rv1 cells [4]): G2/M-cell cycle arrest
- ROS level (CM-H2DCFDA, FACS) (22Rv1 cells [5]; 22Rv1, 5 μM): 9.9±0.4%
- effect of co-treatment with pan-caspase inhibitor zVAD on cytotoxic effects (PC-3 cells [6]): antagonized the cytotoxic effects
- selectivity to prostate cancer cells vs. non-cancer lines (mean cytotoxicity) [7]: higher selectivity to the cancer cells
- selectivity index (SI), IC50 (PNT2)/IC50 (PC-3) ([8]; MTT, 48 h): > 2
- IC50 ([8]; glucose-containing media (+Glc, 2 g/L)): 22.6 ± 7.3 µM
- IC50 ([8]; glucose-free media (−Glc)): 4.7 ± 1.4 µM
- cells containing depolarized mitochondria (JC-1) (22Rv1 cells [9]; 22Rv1, 10 μM, 2 h): 20.4±3.6%
- cells containing depolarized mitochondria (JC-1) (22Rv1 cells [9]; 22Rv1, 10 μM, 48 h): 47±1.0%
- glucose uptake (2-NBDG, plate reader), normalized to cell viability (PC-3 cells [10]): inhibition of glucose uptake

Compound: N#CC(C#N)=NNc1cccc(Cl)c1 [CCCP, 2-[2-(3-chlorophenyl)hydrazinylyidene]propanedinitrile, reference compound]
- cells containing depolarized mitochondria (JC-1) (22Rv1 cells [9]; 22Rv1, 50 µM, 2 h): 94±0.3%
- cells containing depolarized mitochondria (JC-1) (22Rv1 cells [9]; 22Rv1, 50 µM, 48 h): 92.1±1.8%

Compound: OO [H2O2, reference compound]
- ROS level (CM-H2DCFDA, FACS) (22Rv1 cells [5]; 22Rv1, 200 μM): 68.4±1.5%

Compound: CC(=O)O[C@@H]1O[C@H](CSC2=CC(=O)c3c(O)c(C)c(C)c(O)c3C2=O)[C@@H](OC(C)=O)[C@H](OC(C)=O)[C@H]1OC(C)=O [SAB-1, 2-(1,2,3,4-Tetra-O-acetyl-6-deoxy-β-D-glucopyranos-6-ylthio)-5,8-dihydroxy-6,7-dimethyl-1,4-naphthoquinone]
- melting point: 203 to 205 °C

Compound: CC(=O)O[C@@H]1O[C@H](CSc2c(C)c(O)c3c(c2O)C(=O)C(O)=C(O)C3=O)[C@@H](OC(C)=O)[C@H](OC(C)=O)[C@H]1OC(C)=O [SAB-3, 6-(1,2,3,4-Tetra-O-acetyl-6-deoxy-β-D-glucopyranos-6-ylthio)-2,3,5,8-tetrahydroxy-7-methyl-1,4-naphthoquinone]
- melting point: 207 to 211 °C

Compound: COc1c(O)c2c(c(O)c1SC[C@H]1O[C@@H](OC(C)=O)[C@H](OC(C)=O)[C@@H](OC(C)=O)[C@@H]1OC(C)=O)C(=O)C(O)=CC2=O [SAB-5, 7-(1,2,3,4-Tetra-O-acetyl-6-deoxy-β-D-glucopyranos-6-ylthio)-2,5,8-trihydroxy-6-methoxy-1,4-naphthoquinone]
- melting point: 109 to 112 °C

Compound: CC(=O)O[C@@H]1O[C@H](CSC2=C(C)C(=O)c3c(O)cccc3C2=O)[C@@H](OC(C)=O)[C@H](OC(C)=O)[C@H]1OC(C)=O [SAB-7, 2-(1,2,3,4-Tetra-O-acetyl-6-deoxy-β-D-glucopyranos-6-ylthio)-5-hydroxy-3-methyl-1,4-naphthoquinone]
- melting point: 160 to 161 °C

Compound: CC(=O)O[C@@H]1O[C@H](CSC2=C(SC[C@H]3O[C@@H](OC(C)=O)[C@H](OC(C)=O)[C@@H](OC(C)=O)[C@@H]3OC(C)=O)C(=O)c3c(O)c(C)c(C)c(O)c3C2=O)[C@@H](OC(C)=O)[C@H](OC(C)=O)[C@H]1OC(C)=O [SAB-9, 2,3-Di(1,2,3,4-tetra-O-acetyl-6-deoxy-β-D-glucopyranos-6-ylthio)-5,8-dihydroxy-6,7-dimethyl-1,4-naphthoquinone]
- melting point: 202 to 205 °C

Compound: CCC1=C(O)C(=O)c2c(O)c(SC[C@H]3O[C@@H](OC(C)=O)[C@H](OC(C)=O)[C@@H](OC(C)=O)[C@@H]3OC(C)=O)c(OC)c(O)c2C1=O [SAB-11, 7-(1,2,3,4-Tetra-O-acetyl-6-deoxy-β-D-glucopyranos-6-ylthio)-3-ethyl-2,5,8-trihydroxy-6-methoxy-1,4-naphthoquinone]
- melting point: 167 to 171 °C

Compound: CC(=O)O[C@@H]1O[C@H](CSc2c(C)c(O)c3c(c2O)C(=O)C(C)=C(C)C3=O)[C@@H](OC(C)=O)[C@H](OC(C)=O)[C@H]1OC(C)=O [SAB-15, 6-(1,2,3,4-Tetra-O-acetyl-6-deoxy-β-D-glucopyranos-6-ylthio)-5,8-dihydroxy-2,3,7-trimethyl-1,4-naphthoquinone]
- melting point: 148 to 151 °C

Compound: CCc1c(O)c2c(c(O)c1SC[C@H]1O[C@@H](OC(C)=O)[C@H](OC(C)=O)[C@@H](OC(C)=O)[C@@H]1OC(C)=O)C(=O)C(C)=C(C)C2=O [SAB-17, 6-(1,2,3,4-Tetra-O-acetyl-6-deoxy-β-D-glucopyranos-6-ylthio)-7-ethyl-5,8-dihydroxy-2,3-dimethyl-1,4-naphthoquinone]
- melting point: 179 to 182 °C

Compound: CC(=O)O[C@@H]1O[C@H](CSC2=C(Cl)C(=O)c3c(O)c(Cl)c(Cl)c(O)c3C2=O)[C@@H](OC(C)=O)[C@H](OC(C)=O)[C@H]1OC(C)=O [SAB-19, 2-(1,2,3,4-Tetra-O-acetyl-6-deoxy-β-D-glucopyranos-6-ylthio)-3,6,7-trichloro-5,8-dihydroxy-1,4-naphthoquinone]
- melting point: 156 to 159 °C

Compound: CC(=O)O[C@@H]1O[C@H](CSC2=CC(=O)c3c(O)ccc(O)c3C2=O)[C@@H](OC(C)=O)[C@H](OC(C)=O)[C@H]1OC(C)=O [SAB-21, 2-(1,2,3,4-Tetra-O-acetyl-6-deoxy-β-D-glucopyranos-6-ylthio)-5,8-dihydroxy-1,4-naphthoquinone]
- melting point: 207 to 210 °C

Compound: CC(=O)Oc1cccc2c1C(=O)C=C(SC[C@H]1O[C@@H](OC(C)=O)[C@H](OC(C)=O)[C@@H](OC(C)=O)[C@@H]1OC(C)=O)C2=O [SAB-25, 2-(1,2,3,4-Tetra-O-acetyl-6-deoxy-β-D-glucopyranos-6-ylthio)-5-acetoxy-1,4-naphthoquinone]
- melting point: 172 to 175 °C
